In ChEMBL document CHEMBL4387758, “Discovery and Biological evaluation of pyrimido[4,5-d]pyrimidine-2,4(1H,3H)-dione derivatives as potent Bruton's tyrosine kinase inhibitors” (Bioorg Med Chem, 2019):

Key:
[1] = target: T1, Tyrosine-protein kinase BTK (Homo sapiens, UniProt Q06187); experiment: Inhibition of BTK (unknown origin) by ELISA
TMD8 [2] = experiment: Antiproliferative activity against human TMD8 cells assessed as reduction in cell viability incubated for 72 hrs by CCK-8 assay; assay type: functional, cell-based; settings: TMD8, 72 h
Ramos = experiment: cells; settings: Homo sapiens, 72 h
Description: Antiproliferative activity against human Ramos cells assessed as reduction in cell viability incubated for 72 hrs by CCK-8 assay

TMD8 [3] = experiment: Cell cycle arrest in BTK-dependent human TMD8 cells assessed as accumulation of cells in G1 phase at 1 uM incubated for 72 hrs by propidium iodide staining based flow cytometry; assay type: functional
[4] = target: T1, Tyrosine-protein kinase BTK; experiment: Inhibition of BTK phosphorylation at Tyr223 residue in human TMD8 cells at 0.1 to 1000 nM by Western blot analysis; assay type: cell-based
Homo sapiens = organism: Homo sapiens; experiment: Selectivity ratio of IC50 for inhibition of EGFR (unknown origin) to IC50 for inhibition of BTK (unknown origin)

T1 sequence (Q06187 whole entry): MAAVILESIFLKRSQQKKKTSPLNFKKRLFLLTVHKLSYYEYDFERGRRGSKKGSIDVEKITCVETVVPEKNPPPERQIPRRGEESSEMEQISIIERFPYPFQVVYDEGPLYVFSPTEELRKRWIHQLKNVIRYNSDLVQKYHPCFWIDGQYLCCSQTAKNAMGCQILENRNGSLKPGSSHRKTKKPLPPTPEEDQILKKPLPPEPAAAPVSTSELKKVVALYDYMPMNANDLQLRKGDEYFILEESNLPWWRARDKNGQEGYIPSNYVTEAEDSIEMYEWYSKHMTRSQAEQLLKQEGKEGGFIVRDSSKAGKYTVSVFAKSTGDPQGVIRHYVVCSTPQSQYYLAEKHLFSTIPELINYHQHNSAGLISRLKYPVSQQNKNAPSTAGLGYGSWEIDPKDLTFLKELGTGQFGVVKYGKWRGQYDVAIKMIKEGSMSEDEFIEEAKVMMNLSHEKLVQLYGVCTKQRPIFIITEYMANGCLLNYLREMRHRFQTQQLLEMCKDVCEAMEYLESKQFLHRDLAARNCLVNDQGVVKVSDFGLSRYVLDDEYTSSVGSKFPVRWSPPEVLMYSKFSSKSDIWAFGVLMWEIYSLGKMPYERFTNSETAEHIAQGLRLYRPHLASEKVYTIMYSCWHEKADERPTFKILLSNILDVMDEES

Structure (SMILES)	IC50 [1]	other results
C=CC(=O)Nc1cccc(-n2c(=O)n(C)c(=O)c3cnc(Nc4ccc(N5CCC(N(C)C)CC5)cc4OC)nc32)c1	364 nM	
C=CC(=O)Nc1cccc(-n2c(=O)n(CCC)c(=O)c3cnc(Nc4ccc(N5CCC(N(C)C)CC5)cc4OC)nc32)c1	30 nM	
C=CC(=O)Nc1cccc(-n2c(=O)n(CC)c(=O)c3cnc(Nc4ccc(N5CCC(N(C)C)CC5)cc4OC)nc32)c1	396 nM	
C=CC(=O)Nc1cccc(-n2c(=O)n(C)c(=O)c3cnc(Nc4ccc(N5CCSCC5)cc4OC)nc32)c1	806 nM	
C=CC(=O)Nc1cccc(-n2c(=O)n(CCCc3ccccc3)c(=O)c3cnc(Nc4ccc(N5CCC(N(C)C)CC5)cc4OC)nc32)c1	76 nM	
C=CC(=O)Nc1cccc(-n2c(=O)n(C(C)C)c(=O)c3cnc(Nc4ccc(N5CCN(C)CC5)c(C)c4)nc32)c1	0.8 nM	IC50 (TMD8 [2]): 720 nM; IC50 (Ramos): 9210 nM; Activity (TMD8 [3]): 75.2%; inhibition [4]: Dose-dependent effect
C=CC(=O)Nc1cccc(-n2c(=O)n(C)c(=O)c3cnc(Nc4ccccc4)nc32)c1	6.2 nM	
C=CC(=O)Nc1cccc(-n2c(=O)n(CCc3ccccc3)c(=O)c3cnc(Nc4ccc(N5CCC(N(C)C)CC5)cc4OC)nc32)c1	23 nM	
C=CC(=O)Nc1cccc(-n2c(=O)n(C(C)C)c(=O)c3cnc(Nc4ccc(N(C)CCN(C)C)cc4OC)nc32)c1	982 nM	
C=CC(=O)Nc1cccc(-n2c(=O)n(C(C)C)c(=O)c3cnc(Nc4ccc(N5CCN(C)CC5)c(OC)c4)nc32)c1	1.2 nM	IC50 (TMD8 [2]): 810 nM; IC50 (Ramos): 9650 nM; Activity (TMD8 [3]): 75.4%; inhibition [4]: Dose-dependent effect
C=CC(=O)Nc1cccc(-n2c(=O)n(C)c(=O)c3cnc(Nc4ccccc4OC)nc32)c1	996 nM	
C=CC(=O)Nc1cccc(-n2c(=O)n(C(C)C)c(=O)c3cnc(Nc4ccc(N5CCN(C)CC5)cc4OC)nc32)c1	518 nM	
C=CC(=O)Nc1cccc(-n2c(=O)n(Cc3ccccc3)c(=O)c3cnc(Nc4ccc(N5CCC(N(C)C)CC5)cc4OC)nc32)c1	248 nM	Ratio IC50 (Homo sapiens): 206
C=CC(=O)Nc1cccc(-n2c(=O)n(C)c(=O)c3cnc(Nc4ccc(N5CCOCC5)cc4OC)nc32)c1	852 nM	
C=CC(=O)Nc1cccc(-n2c(=O)n(C(C)C)c(=O)c3cnc(Nc4ccc(N5CCC(N6CCN(C)CC6)CC5)cc4OC)nc32)c1	145 nM	
C=CC(=O)Nc1cccc(-n2c(=O)n(C(C)C)c(=O)c3cnc(Nc4ccc(OCCN(C)C)cc4OC)nc32)c1	349 nM	
C=CC(=O)Nc1cccc(-n2c(=O)n(C)c(=O)c3cnc(Nc4ccc(N5CCN(C(C)=O)CC5)cc4OC)nc32)c1	718 nM	
C=CC(=O)Nc1cccc(-n2c(=O)n(C(C)C)c(=O)c3cnc(Nc4ccc(N5CCC(N(C)C)CC5)cc4OC)nc32)c1	359 nM	
